From PubChem BioAssay (NCI)
“And” between values parts separate entries of the source, which are not always exact repeats. Equal entries are not always repeated.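 Cells were grown in 96-well plates and exposed to each compound for 48 hours at five concentrations; endpoints were interpolated linearly between bracketing concentrations, or set to the highest concentration if not reached. At the GI50, growth is halved. Definition used: TGI = concentration required for complete inhibition of growth.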

What was measured:
Assay in all cases: inhibition of tumour cell growth, NCI panel, 48 h
HL-60(TB) leukemia = system: HL-60(TB) leukemia
MOLT-4 leukemia = system: MOLT-4 leukemia
NCI-H460 lung = system: NCI-H460 lung
OVCAR-3 ovarian = system: OVCAR-3 ovarian
OVCAR-4 ovarian = system: OVCAR-4 ovarian
RPMI-8226 leukemia = system: RPMI-8226 leukemia
SF-268 CNS = system: SF-268 CNS
SK-MEL-5 melanoma = system: SK-MEL-5 melanoma
SR leukemia = system: SR leukemia
UO-31 renal = system: UO-31 renal

SMILES	GI50 (HL-60(TB) leukemia)	TGI (HL-60(TB) leukemia)	GI50 (MOLT-4 leukemia)	TGI (MOLT-4 leukemia)	GI50 (NCI-H460 lung)	TGI (NCI-H460 lung)	GI50 (OVCAR-3 ovarian)	TGI (OVCAR-3 ovarian)	GI50 (OVCAR-4 ovarian)	TGI (OVCAR-4 ovarian)	GI50 (RPMI-8226 leukemia)	TGI (RPMI-8226 leukemia)	GI50 (SF-268 CNS)	TGI (SF-268 CNS)	GI50 (SK-MEL-5 melanoma)	TGI (SK-MEL-5 melanoma)	GI50 (SR leukemia)	TGI (SR leukemia)	GI50 (UO-31 renal)	TGI (UO-31 renal)
O=C(O)C1(C(=O)O)CCC1.[NH2-].[NH2-].[Pt+2]	29.5 µM and 12.7 µM	201 µM and 191 µM	86.4 µM and 28 µM	> 237 µM	37.5 µM	206 µM	58.4 µM and 112 µM	139 µM and 195 µM	84 µM and 120 µM	221 µM and > 250 µM	165 µM and 186 µM	234 µM and > 250 µM	49.2 µM and 21.5 µM	209 µM and 161 µM	109 µM and > 194 µM	218 µM and > 250 µM	94.6 µM	> 230 µM	167 µM and 84.1 µM	> 242 µM
O=C(Cc1ccc(F)c(F)c1)Nc1cc(C2(C(F)(F)F)CC2)nn1Cc1ccccc1	3.43 µM	8.33 µM	3.96 µM	13.8 µM	3.16 µM	7.58 µM	3.85 µM	14.5 µM	3.34 µM	> 15 µM	2.82 µM	8.67 µM	4.27 µM	> 15 µM	2.77 µM	5.4 µM	3.89 µM	> 15 µM	2.99 µM	10.5 µM
CC(C)O/N=C/c1cc(NC(=S)OC(C)C)ccc1Cl	–	57.6 µM	–	48.8 µM	–	> 100 µM	–	> 52.6 µM	–	> 88.8 µM	–	54.2 µM	–	> 69.8 µM	–	> 73.4 µM	–	45 µM	–	> 61.2 µM
Cc1nc2ccccc2c(/C=C/c2ccc(Cl)cc2)c1C(=O)/C=C/c1ccc(C(F)(F)F)cc1	0.36 µM	1.38 µM	0.332 µM	> 100 µM	0.642 µM	1.89 µM	0.292 µM	0.82 µM	1.26 µM	2.61 µM	0.269 µM	0.681 µM	0.872 µM	2.78 µM	1.34 µM	2.63 µM	0.25 µM	2.26 µM	0.238 µM	0.807 µM
O=c1c(Br)cc2nc3ccccc3sc-2c1Br	–	38.9 µM	–	> 65.8 µM	–	> 100 µM	–	32.5 µM	–	> 70.9 µM	–	> 100 µM	–	> 100 µM	–	> 100 µM	–	> 100 µM	–	> 100 µM
COc1cc(C(=O)N2CCN(c3ncnc4ccccc34)CC2)c(N)cc1OCc1ccccc1	20.4 µM	47.7 µM	8.55 µM	40.4 µM	11.3 µM	26.1 µM	11.8 µM	25 µM	13.2 µM	47 µM	14 µM	47.8 µM	14.1 µM	30.1 µM	11.1 µM	23 µM	4.11 µM	15.9 µM	12 µM	26.5 µM
CCN(CC)CC(O)CNc1c2ccc([N+](=O)[O-])cc2nc2cc(OC)c(OC)cc12 (stereo unspecified)	2.06 µM	6.81 µM	0.376 µM	12.4 µM	0.185 µM	0.669 µM	0.207 µM	0.543 µM	0.162 µM	0.574 µM	0.359 µM	2.14 µM	0.293 µM	1.34 µM	0.273 µM	0.769 µM	0.303 µM	11.1 µM	2.21 µM	12.9 µM
COC(=O)C(C(=O)OC)C1CCCC(=O)C1 (stereo unspecified)	–	> 100 µM	–	> 100 µM	–	> 100 µM	–	> 100 µM	–	> 100 µM	–	> 100 µM	–	> 100 µM	–	> 100 µM	–	> 100 µM	–	> 100 µM
CC(=O)OC[C@@H](COC(=O)/C=C/c1ccc(O)cc1)OC1OC(CO)C(O)C(O)C1O (stereo partly specified)	–	> 100 µM	–	> 100 µM	–	> 100 µM	–	> 100 µM	–	> 100 µM	–	> 100 µM	–	> 100 µM	–	> 100 µM	–	> 100 µM	–	> 100 µM
O=c1cc(-c2cccc3c2Sc2ccccc2S3)oc(N2CCOCC2)c1	11.6 µM	32.3 µM	7.34 µM	25.5 µM	12.7 µM	31.2 µM	10.1 µM	21.9 µM	11.2 µM	31.9 µM	9.83 µM	43.4 µM	7.76 µM	24.2 µM	8.53 µM	22 µM	4.21 µM	27.3 µM	1.79 µM	15.8 µM
Cc1cccc(C(C)(C)C)c1NC(=O)CC1C(=O)Nc2ccccc2S1(=O)=O (stereo unspecified)	–	10.7 µM	–	5.19 µM	–	24.1 µM	–	18.1 µM	–	25.5 µM	–	17.2 µM	–	25.5 µM	–	24.9 µM	–	7.13 µM	–	23.3 µM
C[As](C)SCC(COC(=O)C(Cl)c1ccccc1)OC(=O)C(Cl)c1ccccc1 (stereo unspecified)	0.418 µM	–	0.49 µM	–	9.03 µM	33.6 µM	0.179 µM	0.474 µM	4.38 µM	18 µM	0.299 µM	1.37 µM	3.3 µM	14.9 µM	0.305 µM	1.12 µM	1.41 µM	5.84 µM	1.55 µM	> 44.4 µM
COc1c2ccoc2c(OC)c2oc(=O)ccc12	–	> 100 µM	–	> 100 µM	–	> 100 µM	–	> 100 µM	–	> 100 µM	–	> 100 µM	–	> 100 µM	–	> 100 µM	–	> 100 µM	–	> 100 µM
O=C(NCCCO)c1cc(Cl)ccc1O	2.22 µM	6.35 µM	3.22 µM	15.1 µM	2.78 µM	11.1 µM	1.6 µM	9.11 µM	2.54 µM	12.4 µM	0.704 µM	2.68 µM	6.52 µM	20.2 µM	1.94 µM	4.33 µM	3.24 µM	18.2 µM	2.98 µM	11.3 µM
CCC[CH2][Sn]1([CH2]CCC)[O]CC(CN(C)Cc2ccccc2)[O]1 (stereo unspecified)	0.473 µM	2.08 µM	3.64 µM	20.8 µM	16.4 µM	30.3 µM	6.35 µM	18.4 µM	10.7 µM	23 µM	2.75 µM	7.79 µM	5.89 µM	17.7 µM	11.9 µM	24.3 µM	4.31 µM	23.7 µM	12.2 µM	24.7 µM
C#Cc1c(/C=C/C(=O)OCC)ccc2ccccc12	10.6 µM	26.1 µM	10.7 µM	26.1 µM	78.2 µM	> 100 µM	16 µM	40.6 µM	20.7 µM	69.1 µM	10.7 µM	29.3 µM	18.2 µM	58.5 µM	15.2 µM	31.9 µM	3.94 µM	17 µM	12.7 µM	26.6 µM
Cc1cc(N2CCOCC2)nc(N[C@@H]2CCC[C@H](Nc3ccnc4cc(Cl)ccc34)C2)n1	1.98 µM	3.87 µM	2.28 µM	7.19 µM	2.66 µM	8.64 µM	2.83 µM	8.62 µM	2.8 µM	10.8 µM	2.09 µM	5.25 µM	1.59 µM	4.44 µM	1.86 µM	3.27 µM	1.05 µM	3.83 µM	1.29 µM	2.63 µM
CC(C)=CCC/C(C)=C/CC/C(C)=C/CSc1ccccc1C(=O)O	18.6 µM	41.4 µM and 67.1 µM	–	48.9 µM and 57.7 µM	20.9 µM	42 µM and 33.1 µM	–	33.8 µM and 30.9 µM	31.5 µM	> 100 µM	25.2 µM	73.1 µM and 81.4 µM	18.5 µM	35.7 µM and 32.6 µM	19.6 µM	41.5 µM and 29.5 µM	22.5 µM	59.1 µM	17.7 µM	37.1 µM
S=C(Nc1ccc(-c2nc3ccccc3[nH]2)cc1)Nc1ccc(-c2nc3ccccc3[nH]2)cc1	> 100 µM	> 100 µM	43.8 µM	> 100 µM	65 µM	> 100 µM	48.9 µM	> 100 µM	> 100 µM	> 100 µM	71.8 µM	> 100 µM	> 100 µM	> 100 µM	37.1 µM	> 100 µM	63.4 µM	> 100 µM	31.7 µM	> 100 µM
C/C1=C/C(=O)O[C@@H]2C[C@@H](CC[C@H](C)/C=C\C=C\CC1)O[C@@](O)([C@@H]1CSC(=O)N1)C2	–	> 10 µM	–	> 10 µM	–	> 10 µM	–	4.25 µM	–	> 10 µM	–	> 10 µM	–	1.38 µM	–	> 2.76 µM	–	> 10 µM	–	1.25 µM
O=Nc1ccc(NO)c2ccccc12	3.14 µM	7.56 µM	26.6 µM	88.1 µM	21.7 µM	51.3 µM	2.37 µM	12 µM	3.33 µM	16.2 µM	13.3 µM	56.2 µM	13.8 µM	27.8 µM	11.7 µM	24.2 µM	16.3 µM	62 µM	13.2 µM	26.4 µM
NCC1OC(n2cnc3c(N)ncnc32)CC1O (stereo unspecified)	–	> 100 µM	–	> 100 µM	–	> 100 µM	–	> 100 µM	–	> 100 µM	–	> 100 µM	–	> 100 µM	–	> 100 µM	–	> 100 µM	–	> 100 µM
CC1CCCC(C(O)CC2CC(=O)NC(=O)C2)C1O (stereo unspecified)	–	> 100 µM	–	> 100 µM	–	> 100 µM	–	> 100 µM	–	> 100 µM	–	> 100 µM	–	> 100 µM	–	> 100 µM	–	> 100 µM	–	> 100 µM
Cc1nnc(-c2cccc(-c3ccc(C(=O)NCC4CC4)cc3)c2)o1	> 25 µM	> 25 µM	> 25 µM	> 25 µM	> 25 µM	> 25 µM	> 25 µM	> 25 µM	> 25 µM	> 25 µM	> 25 µM	> 25 µM	> 25 µM	> 25 µM	> 25 µM	> 25 µM	> 25 µM	> 25 µM	> 25 µM	> 25 µM
